In the NIST ThermoML archive (doi:10.1016/j.jct.2012.04.018):
Numbers after ± are expanded uncertainties.

Experiment: refractive index (other wavelength) (dimensionless)
Conditions: 100 kPa, Liquid, Wavelength=632.8 nm, He-Ne laser

Structure (SMILES): N#Cc1ccccc1 [benzonitrile]
- refractive index (280.98 K): 1.5309 ± 0.0003
- refractive index (281.89 K): 1.5304 ± 0.0003
- refractive index (283.78 K): 1.5296 ± 0.0003
- refractive index (286.19 K): 1.5284 ± 0.0003
- refractive index (288.04 K): 1.5275 ± 0.0003
- refractive index (290.13 K): 1.5266 ± 0.0003

Structure (SMILES): CCCCCCCCCCC [undecane]
- refractive index (280.08 K): 1.4216 ± 0.0003
- refractive index (281.97 K): 1.4209 ± 0.0003
- refractive index (283.66 K): 1.4201 ± 0.0003
- refractive index (285.71 K): 1.4192 ± 0.0003
- refractive index (287.84 K): 1.4182 ± 0.0003
- refractive index (290.47 K): 1.4171 ± 0.0003
